Data as given in article PMC12172042, “Metabolic Activation versus Masked Prodrugs: Bisubstrate Mimic Inhibitors of CoaBC’s PPCS Activity in Mycobacterium tuberculosis and Staphylococcus aureus” (ACS Infectious Diseases, 2025).

Experiments:
[1] = tested on: CC(C)(COP(=O)(O)O)[C@@H](O)C(=O)NCCC(=O)O; assay: purified protein; details: CTP (MgCTP)
MtCoaBC = molecular target: T1, MtCoaBC (Mycobacterium tuberculosis, UniProt P9WNZ1); assay: coupled pyrophosphate assay with Morrison tight-binding fit; formed in situ from P-CJ and CTP; CD melting shift […] °C; type: biochemical
T1 construct: gene coaBC

SaCoaBC = molecular target: T2, SaCoaBC (Staphylococcus aureus, UniProt Q2G268); assay: coupled pyrophosphate assay with Morrison tight-binding fit; formed in situ from P-CJ and CTP; CD melting shift ~[…] °C; type: biochemical
T2 construct: gene coaBC
T2 sequence (Q2G268 entry or part of it): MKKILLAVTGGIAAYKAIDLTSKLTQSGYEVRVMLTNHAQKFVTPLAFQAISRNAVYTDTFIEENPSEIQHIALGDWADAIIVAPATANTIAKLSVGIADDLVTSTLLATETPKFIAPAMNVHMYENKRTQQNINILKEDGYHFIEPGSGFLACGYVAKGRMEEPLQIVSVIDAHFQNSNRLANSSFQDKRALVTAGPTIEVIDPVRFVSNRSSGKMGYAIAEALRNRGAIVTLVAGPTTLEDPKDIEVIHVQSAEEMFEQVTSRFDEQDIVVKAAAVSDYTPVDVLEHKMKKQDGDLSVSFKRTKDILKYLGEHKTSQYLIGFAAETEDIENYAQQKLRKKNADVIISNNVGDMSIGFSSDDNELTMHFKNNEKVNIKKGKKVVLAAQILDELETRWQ

T1 sequence (P9WNZ1 whole entry): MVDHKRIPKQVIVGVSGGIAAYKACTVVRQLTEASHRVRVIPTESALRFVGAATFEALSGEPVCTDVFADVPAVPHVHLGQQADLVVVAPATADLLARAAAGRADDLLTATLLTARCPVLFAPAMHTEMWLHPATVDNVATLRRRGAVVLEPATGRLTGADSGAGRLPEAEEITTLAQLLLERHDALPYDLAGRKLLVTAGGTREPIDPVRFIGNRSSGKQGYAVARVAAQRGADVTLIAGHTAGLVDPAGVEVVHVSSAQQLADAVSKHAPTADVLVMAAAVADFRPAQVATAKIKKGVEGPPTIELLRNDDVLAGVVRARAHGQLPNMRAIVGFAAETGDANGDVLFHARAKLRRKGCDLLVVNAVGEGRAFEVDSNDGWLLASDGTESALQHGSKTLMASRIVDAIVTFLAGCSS

Compound | Km [1] [µM] | Ki (MtCoaBC) [nM] | Ki (SaCoaBC) [nM]
MtCoaBC (Mycobacterium tuberculosis H37Rv) | 33.2 ± 4.2 |  | 
CC(C)(COP(=O)(O)O)[C@@H](O)C(=O)N/C=C/C(=O)OP(=O)(O)OC[C@H]1O[C@@H](n2ccc(N)nc2=O)[C@H](O)[C@@H]1O [compound 11, P-CJ-CMP] |  | 58.7 | 32.3
